For one data set, the target named is FYNα (Homo sapiens, UniProt P06241). Briefly: FYNα kinase assay, LANCE Ultra TR-FRET. The class given is biochemical. Particulars: for IC50: mean ± SD of at least three independent determinations, ATP near Km, read-out: Fyn IC50; for Fyn % Inhibition @ 50 μM: mean ± SD, n.i. = no inhibition. Here is the method:
(§1) GSK-3β and FYNα kinase assays were run in 384-well microplates (OptiPlate-384, White, PerkinElmer) in a total reaction volume of 20 μL. The inhibitory potency against human recombinant GSK-3β and FYNα (Carna Biosciences) was evaluated using the LANCE Ultra (PerkinElmer) time-resolved fluorescence resonance energy transfer (TR-FRET) by measuring the phosphorylation of the ULight-labeled substrate, according to the manufacturer’s instructions. The synthetic peptide surrounding Ser641 of human muscle glycogen synthase (ULight-GS (Ser641/pSer657)) and the synthetic 28-amino acid peptide containing eight Tyr residues placed in different amino acid contexts (ULightTM-TK (PT66)) were selected as specific substrates for GSK-3β and FYNα, respectively. Briefly, test compounds and staurosporine (reference compound) or DMSO (control) are mixed with the enzyme (GSK-3β: 2 nM and FYNα: 1 nM) in a buffer containing 50 mM HEPES (pH 7.5), 1 mM EGTA, 10 mM MgCl2, 2 mM DTT, and 0.01% Tween-20. […] Following incubation, the reaction is stopped by adding 6 mM EDTA. After 5 min, the antiphospho antibody labeled with europium chelate is added. After 1 more hour, the kinase reaction is monitored by irradiation at 320 nm and the fluorescence measured at 615 and 665 nm, using EnVision 2014 Multilabel Reader (PerkinElmer). The calculated signal ratio at 665/615 nm is proportional to the extent of ULight-substrate phosphorylation. The compounds were tested at 11 different concentrations ranging from 3 nM up to 100 μM in triplicate. […] The results were expressed as a percent inhibition of the control enzyme activity.
Dose–response curves were run in at least three independent experiments, performed in three technical replicates. IC50 values (concentrations causing half-maximal enzyme inhibition) were determined by nonlinear regression analysis of the Log[concentration]/response curves generated with mean replicate values using a four parameter Hill equation curve fitting with GraphPad Prism 8 (GraphPad Software Inc., CA-USA).
In general terms: TR-FRET usually uses a lanthanide donor and a delayed reading to cut background.

Data set [1] deals with neurospheres (NPCs from the subventricular zone). Description: Neurosphere growth analysis (NPC proliferation). The class given is cell-based, mice. As to conditions: 0.1, 1, and 5 μM; 7 days. The protocol: Based on that, we further investigated the neurogenic and differentiation potential of our kinase inhibitors in cell culture of neurospheres, which are floating pools of NPCs coming from the subventricular zone (SVZ) of six-month-old mice. Particularly, we first analyzed the variation, during 7 days, in number and size of neurosphere population with and without treatment.
To investigate the effect of compounds of interest in neurospheres’ growth rate, single spheres were plated in suspension in 96-well plates (5 × 10^3 cells/well) in the presence of compounds (0.1 μM, 1 μM, and 5 μM) in complete DMEM F-12 culture medium. One image/well was acquired every day by using the Sartorius Incucyte Live-Cell Analysis System and evaluated through the Brightfield Spheroid Analysis Software Module. Only aggregates with areas larger than 400 μm^2 were considered for statistical analysis.

Data set [2] relates to primary rat cerebellar granule neurons (CGNs). Description: Neuroprotection in CGNs, serum/potassium deprivation (MTT). It is filed as cell-based. Particulars: 5, 10, and 25 μM, 48 h. The text has this: First, we evaluated the neuroprotective properties of the selected compounds in the same cell line, once the expression of Fyn and GSK-3β in this cellular model was verified (Figure S2), after a serum/potassium deprivation experiment, which simulates physiological aging (and mortality), triggering around 20% of cell death. In particular, 7 days differentiated CGNs were exposed to serum-free BME medium with low extracellular concentration of K^+ ions and treated at selected doses (i.e., 5, 10, and 25 μM) of compounds for 48 h. Neuronal viability was then determined with an MTT assay.
To evaluate the neuroprotective effect of our compounds, we tested increasing concentrations (5 μM, 10 μM, 25 μM) of compounds of interest in differentiated CGNs switched to serum-free BME medium with 5 mM KCl (serum-potassium deprivation) for 48 h to mimic in vitro the naturally occurring death of granule cells. Neuroprotection was evaluated through MTT assay.
For MTT assay, thiazolyl blue was added to the culture medium at a final concentration of 0.1 mg/mL. Following a 20 min incubation at 37 °C in the dark, the MTT precipitate was dissolved in 0.1 M Tris–HCl pH 7.5 buffer containing 5% Triton X-100 (all from Sigma-Aldrich) and absorbance was read at 570 nm in a microplate spectrophotometric reader (Bio-Rad).

The next data set concerns the target human recombinant GSK-3β (Homo sapiens, UniProt P49841). Briefly: GSK-3β kinase assay, LANCE Ultra TR-FRET. The class given is biochemical. Particulars: for inhibition at 50 µM / GSK-3β % Inhibition @ 50 μM: mean ± SD, n.i. = no inhibition. The protocol: as §1, with “manufacturer's” for “manufacturer’s”, “The synthetic peptide surrounding Ser641 of human muscle glycogen synthase (ULight-GS (Ser641/pSer657)) and the synthetic 28-amino acid peptide containing eight Tyr residues placed in different amino acid contexts (ULightTM-TK (PT66)) were selected as specific substrates for GSK-3β and FYNα, respectively.” left out, “activity. Dose-response curves were run in at least three independent experiments, performed in three technical replicates. IC50 values (concentrations causing half-maximal enzyme inhibition) were determined by nonlinear regression analysis of the Log[concentration]/response curves generated with mean replicate values using a four parameter Hill equation curve fitting with GraphPad Prism 8 (GraphPad Software Inc., CA-USA).” for “activity.”

The subject of data set [3] is primary rat cerebellar granule neurons (CGNs). Briefly: Neurotoxicity, cell viability in CGNs (MTT). It is filed as cell-based. As to conditions: 5, 10, and 25 μM, 24 h.
Protocol: A preliminary cell viability assessment was conducted in primary rat cerebellar granule neurons (CGNs), which are considered a reliable model for studying cellular and molecular mechanisms of survival/apoptosis and neurodegeneration/neuroprotection.
Primary cerebellar granule cells were dissociated from cerebella and plated on 96-well plates, previously coated with 10 μg/mL poly-L-lysine, at a density of 1.2 × 10^5 cells/0.2 mL medium/well in BME supplemented with 10% heat-inactivated FBS (Life Technologies), 2 mmol/L glutamine, 100 μmol/L gentamicin sulfate, and 25 mM KCl (all from Sigma-Aldrich). Sixteen hours later, 10 μM cytosine arabinofuranoside (Sigma-Aldrich) was added to avoid glial proliferation. After 7 days in vitro, differentiated neurons were shifted to serum-free BME medium and exposed to increasing concentrations (5 μM, 10 μM, 25 μM) of compounds of interest for 24 h. Then, cell viability was evaluated through the MTT assay.
In data set [4] the test system is immortalized murine microglia N9. Description: Immunomodulation in LPS-treated N9 microglia, Western blot of iNOS and TREM2. As to conditions: 2.5 and 5 μM; 100 ng/mL LPS, 24 h. For orientation: Immunoblotting shows a protein as a band on a membrane.
Protocol: To gain a conclusive answer on the potential role of these kinase inhibitors in counteracting neuroinflammatory processes, after the verified induced astrocytic polarization, the ability of selected compounds to modulate inflammatory response was analyzed by favoring the immunomodulatory switch from neurotoxic M1 phenotype of microglia to phagocytic and neuroprotective M2 phenotype, evaluating inducible nitric oxide synthase (iNOS) and TREM2 as M1 and M2 markers (Figure ).
The microglial phenotype was evaluated through Western blot analysis of the pro-inflammatory iNOS and anti-inflammatory-TREM2 markers.

Structures are written as SMILES.

The values below come from PMC12406253, “Exploration of the Neuromodulatory Properties of Fyn and GSK-3β Kinases Exploiting 7‑Azaindole-Based Inhibitors” (Journal of Medicinal Chemistry, 2025).

The IC50 is the concentration needed to halve the response being measured. One may read the inhibition as the share of the control response that was lost under treatment.

Sequence of FYNα (P06241 whole entry): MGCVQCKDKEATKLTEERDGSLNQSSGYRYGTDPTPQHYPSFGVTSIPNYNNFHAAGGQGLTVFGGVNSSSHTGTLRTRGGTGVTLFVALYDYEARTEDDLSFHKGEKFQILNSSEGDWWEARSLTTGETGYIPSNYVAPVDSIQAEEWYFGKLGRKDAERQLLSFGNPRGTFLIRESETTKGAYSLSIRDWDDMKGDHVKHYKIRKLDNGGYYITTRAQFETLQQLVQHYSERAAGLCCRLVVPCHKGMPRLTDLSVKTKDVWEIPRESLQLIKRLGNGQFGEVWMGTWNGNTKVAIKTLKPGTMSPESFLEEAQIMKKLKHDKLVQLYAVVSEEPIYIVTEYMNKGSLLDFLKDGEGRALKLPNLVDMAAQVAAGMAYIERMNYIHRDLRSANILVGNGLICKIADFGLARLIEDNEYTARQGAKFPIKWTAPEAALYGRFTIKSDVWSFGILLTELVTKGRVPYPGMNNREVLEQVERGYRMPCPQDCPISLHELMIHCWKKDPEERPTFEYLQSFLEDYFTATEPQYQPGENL
Sequence of human recombinant GSK-3β (P49841 whole entry): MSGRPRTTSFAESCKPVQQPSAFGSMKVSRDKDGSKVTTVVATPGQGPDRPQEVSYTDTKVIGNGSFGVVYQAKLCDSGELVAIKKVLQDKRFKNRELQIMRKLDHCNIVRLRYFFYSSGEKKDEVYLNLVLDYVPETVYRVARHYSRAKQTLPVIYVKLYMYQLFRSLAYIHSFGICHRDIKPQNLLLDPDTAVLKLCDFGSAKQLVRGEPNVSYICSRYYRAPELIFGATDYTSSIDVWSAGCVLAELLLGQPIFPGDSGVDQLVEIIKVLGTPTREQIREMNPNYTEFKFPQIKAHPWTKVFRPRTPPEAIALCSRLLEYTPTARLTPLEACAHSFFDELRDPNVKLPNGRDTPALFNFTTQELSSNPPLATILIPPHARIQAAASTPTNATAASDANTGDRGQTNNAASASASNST

Turning to `Br.c1cnc2[nH]cc(-c3csc(NCc4ccncc4)n3)c2c1` [Compound 27, N-(Pyridin-4-ylmethyl)-4-(1H-pyrrolo[2,3-b]pyridin-3-yl)thiazol-2-amine Hydrobromide], the IC50 at FYNα amounted to 3.48 ± 0.68 µM. In data set [1], the “Neurosphere dimension (brightfield object total area), maturation” value is “noticeable maturation at days 6 and 7”; the “Neurosphere number (object count per image), neurogenesis” value is listed as “pronounced neurogenesis”.

In the case of `Br.CN(Cc1ccccc1)c1nc(-c2c[nH]c3ncccc23)cs1` [Compound 33, N-Benzyl-N-methyl-4-(1H-pyrrolo[2,3-b]pyridin-3-yl)thiazol-2-amine Hydrobromide], the “Fyn % Inhibition @ 50 μM” value at FYNα is recorded as “n.i”. Also, the “Neuroprotection on CGNs (cell viability after serum/potassium deprivation)” value in data set [2] is “almost equipotent to inactive compounds”. The IC50 at human recombinant GSK-3β (mean ± SD of at least three independent determinations, ATP near Km) worked out at 2.45 ± 0.54 µM.

For `Br.C=CCn1cc(-c2csc(NCc3ccccc3)n2)c2cccnc21` [Compound 36], the “Fyn % Inhibition @ 50 μM” value on FYNα is on record as “n.i”. Moreover, the inhibition at 50 µM at human recombinant GSK-3β came out at 4%.

Take `Br.CN(C)c1ccc(CNc2nc(-c3c[nH]c4ncccc34)cs2)cc1` [Compound 26, N-(4-(Dimethylamino)benzyl)-4-(1H-pyrrolo[2,3-b]pyridin-3-yl)thiazol-2-amine Hydrobromide]: the “Fyn % Inhibition @ 50 μM” value at FYNα was “completely inactive”. The “Neurotoxicity on CGNs (cell viability compared to control)” value in data set [3] is recorded as “not neurotoxic”. The “GSK-3β % Inhibition @ 50 μM” value on human recombinant GSK-3β was “completely inactive”. Also, the “TREM2 expression (M2 marker) vs LPS” value in data set [4] is given as “no significant variations”.

As for `Br.c1ccc2c(Nc3nc(-c4c[nH]c5ncccc45)cs3)cccc2c1` [Compound 8, N-(Naphthalen-1-yl)-4-(1H-pyrrolo[2,3-b]pyridin-3-yl)thiazol-2-amine Hydrobromide], at FYNα, the “Fyn % Inhibition @ 50 μM” value is “n.i”. The inhibition at 50 µM at human recombinant GSK-3β was 5.1%.

Consider `Br.c1ccc(CNc2nc(-c3c[nH]c4ccccc34)cs2)cc1` [Compound 34], for which the “Fyn % Inhibition @ 50 μM” value at FYNα is recorded as “n.i”. For the same compound, the “GSK-3β % Inhibition @ 50 μM” value at human recombinant GSK-3β is reported as “n.i”.

On to `Br.O=[N+]([O-])c1ccc(Nc2nc(-c3c[nH]c4ncccc34)cs2)cc1` [Compound 14, N-(4-Nitrophenyl)-4-(1H-pyrrolo[2,3-b]pyridin-3-yl)thiazol-2-amine Hydrobromide], for which the “Fyn % Inhibition @ 50 μM” value on FYNα is “n.i”. Also, at human recombinant GSK-3β, the inhibition at 50 µM worked out at 8%.

For the compound `Br.Cc1sc(NCc2ccncc2)nc1-c1c[nH]c2ncccc12` [Compound 42, 5-Methyl-N-(pyridin-4-ylmethyl)-4-(1H-pyrrolo[2,3-b]pyridin-3-yl)thiazol-2-amine Hydrobromide], the IC50 at FYNα stood at 0.2 ± 0.02 µM. Besides, the “Neurosphere dimension (brightfield object total area), maturation” value in data set [1] is “premature increase in dimension”.
